According to publication PMC7395068, “The evolution of strategies to minimise the risk of human drug-induced liver injury (DILI) in drug discovery and development” (Archives of Toxicology, 2020):
Read-outs that look alike come from different tables or passages of the source.

What was measured:
[1] = cited from earlier work
[2] = tested on: PHH spheroids; settings: cited from earlier work
[3] = tested on: THLE or HepG2 cells, isolated mitochondria, BSEP; settings: cited from earlier work
[4] = tested on: human hepatocytes; settings: cited from earlier work
[5] = tested on: hLiMTs; assay: Combined HCI (HCS) and cellular ATP 3D assay in hLiMTs; settings: for AC50 / minimal effective concentration: Homo sapiens
[6] = tested on: hLiMTs; settings: cited from earlier work
[7] = tested on: HepG2 cells, primary human hepatocytes; settings: In vitro Assay; ref Garside 2014; cited from earlier work
[8] = tested on: HepG2 C3A spheroid, BSEP, Glu/Gal in HepG2 cells, bioactivation; settings: cited from earlier work
[9] = tested on: isolated mouse liver mitochondria; settings: In vitro Assay; ref Porceddu 2012; cited from earlier work
[10] = plasma free fraction; cited from earlier work
[11] = cited from earlier work; remark: listed apart in the source
[12] = tested on: HepaRG spheroids; assay: Combined HCI (HCS) and cellular ATP 3D assay in HepaRG spheroids; settings: for AC50 / minimal effective concentration: Homo sapiens
[13] = tested on: PHH; settings: cited from earlier work
[14] = Modeled in vitro assays (cytotoxicity, mitochondrial dysfunction, BSEP), ref Aleo et al. 2019
[15] = Microtissue model structural based (HCI), combined HCS and ATP, MEC < 25 × Cmax.tot cut-off
[16] = In vitro Assay, ref Proctor 2017

hLiMTs <25x Avg Cmax ATP ([5]; hLiMTs, ATP endpoint, cut-off <25x Avg Cmax): +ve
hLiMTs <100x Avg Cmaxu ATP ([5]; hLiMTs, ATP endpoint, cut-off <100x Avg Cmaxu): +ve (<100x Avg Cmaxu)
hLiMTs <25x Avg Cmax HCS ([5]; hLiMTs, HCS endpoints, cut-off <25x Avg Cmax): +ve
hLiMTs <100x Avg Cmaxu HCS ([5]; hLiMTs, HCS endpoints, cut-off <100x Avg Cmaxu): +ve (<100x Avg Cmaxu)
hLiMTs <25x Avg Cmax All ([5]; hLiMTs, all endpoints (ATP and HCS), cut-off <25x Avg Cmax): +ve
hLiMTs Cmax max All ([5]; hLiMTs, all endpoints, Cmax max used): +ve
hLiMTs Cmax min All ([5]; hLiMTs, all endpoints, Cmax min used): +ve
hLiMTs <10 uM All ([5]; hLiMTs, all endpoints, cut-off <10 uM): +ve (<10 uM)
hLiMTs <100x Avg Cmaxu All ([5]; hLiMTs, all endpoints, cut-off <100x Avg Cmaxu): +ve (<100x Avg Cmaxu)
HepaRG <25x Avg Cmax ATP ([12]; HepaRG, ATP endpoint, cut-off <25x Avg Cmax): +ve
HepaRG <100x Avg Cmaxu ATP ([12]; HepaRG, ATP endpoint, cut-off <100x Avg Cmaxu): +ve (<100x Avg Cmaxu)
HepaRG <25x Avg Cmax HCS ([12]; HepaRG, HCS endpoints, cut-off <25x Avg Cmax): +ve
HepaRG <100x Avg Cmaxu HCS ([12]; HepaRG, HCS endpoints, cut-off <100x Avg Cmaxu): +ve (<100x Avg Cmaxu)
HepaRG <25x Avg Cmax All ([12]; HepaRG, all endpoints (ATP and HCS), cut-off <25x Avg Cmax): +ve
HepaRG Cmax max All ([12]; HepaRG, all endpoints, Cmax max used): +ve
HepaRG Cmax min All ([12]; HepaRG, all endpoints, Cmax min used): +ve
HepaRG <10 uM All ([12]; HepaRG, all endpoints, cut-off <10 uM): +ve (<10 uM)
HepaRG <100x Avg Cmaxu All ([12]; HepaRG, all endpoints, cut-off <100x Avg Cmaxu): +ve (<100x Avg Cmaxu)
SMILES: C1CCC(C(CC2CCCCN2)C2CCCCC2)CC1 (centres unmarked) [perhexiline]
Assigned DILI category ([1]; Chen et al. 2016 or literature alignment, ref Chen et al. 2016): 3
In vivo DILI ([1]; […]): +VE
In vivo DILI ([1]; ref Aleo 2019): +VE
In vivo DILI ([1]; ref Garside 2014): +VE
In vivo DILI ([1]; ref Porceddu 2012): +VE
In vivo DILI ([1]; ref Proctor 2017): +VE
In vivo DILI ([1]; ref Vorrink 2018): +VE
In vivo DILI ([1]; ref Williams 2019): +VE
In vivo DILI ([1]; ref Xu 2008): +VE
hLiMTs ATP <20 x Cmax ([2]; In vitro Assay, ref Vorrink 2018): +VE (IC20 < 20 × Cmax.tot cut-off)
DILI in vitro assay prediction, Vorrink (2018) ([2]; PHH spheroids, ATP, 14 days, IC20 < 20 × Cmax.tot, ref Vorrink et al. 2018): +VE (IC20 < 20 × Cmax.tot cut-off)
Partition Hybrid HRM Score ([3]; In vitro Assay, ref Aleo 2019): +VE
Ro2 Hybrid HRM Score ([3]; In vitro Assay, ref Aleo 2019): +VE
Partition Hybrid HRM Score ≥4, Aleo (2019) [3, 14]: +VE (Partition Hybrid HRM Score ≥4)
Partition Hybrid HRM Score ≥8, Aleo (2019) [3, 14]: +VE (Partition Hybrid HRM Score ≥8)
Rule of Two hybrid HRM Score ≥3, Aleo (2019) [3, 14]: +VE (Rule of Two hybrid HRM Score ≥3)
Rule of Two hybrid HRM Score ≥8, Aleo (2019) [3, 14]: +VE (Rule of Two hybrid HRM Score ≥8)
Structural based (HCI) ([4]; In vitro Assay, ref Xu 2008): +VE
DILI in vitro assay prediction, Xu (2008) ([4]; Structural based (HCI), human hepatocytes, ref Xu et al. 2008): +VE
AC50 ([5]; read-out: ATP endpoint AC50): 1690 nM
minimal effective concentration ([5]; read-out: ATP endpoint MEC): 1.49 µM
AC50 ([5]; read-out: HCS endpoint AC50): 1750 nM
minimal effective concentration ([5]; read-out: HCS endpoint MEC): 0.354 µM
DILI prediction hLiMTs (HCS-MEC) [5, 15]: +VE (MEC < 25 × Cmax.tot cut-off)
hLiMTs ATP <100uM [6, 16]: +VE (IC50 threshold of 100 µM)
hLiMTs/100uM, Proctor (2017) ([6]; hLiMTs, ATP, IC50 threshold 100 µM, ref Proctor et al. 2017): +VE (IC50 threshold of 100 µM)
Cluster 1-6 +VE Assay [7]: +VE
Bayesian Machine Learning DILI prediction, Williams (2019) ([8]; Bayesian modeling, ref Williams et al. 2019): +VE
Bayesian Machine Learning ([8]; In vitro Assay, ref Williams 2019): +VE
in vitro data EC2<=1x Cmax [9]: +VE
in vitro data EC20<=2uM [9]: +VE
fu [10]: 0.100
DILI severity category (Chen et al. [2016]) ([11]; LTKB DILIrank category, ref Chen et al. 2016): Most
DILI severity category (Chen 2016) ([11]; human DILI classification, LTKB DILIrank, ref Chen et al. 2016): Most
DILI severity category ([11]; human DILI severity, ref Chen et al.): Most
DILI +VE (5-8), DILI -VE (-4) ([11]; ref Chen 2016): +VE
DILI severity category ([11]; ref Chen 2016): vMost-DILI-Concern
AC50 ([12]; HepaRG, read-out: ATP endpoint AC50): 3690 nM
minimal effective concentration ([12]; HepaRG, read-out: ATP endpoint MEC): 1.76 µM
AC50 ([12]; HepaRG, read-out: HCS endpoint AC50): 6320 nM
minimal effective concentration ([12]; HepaRG, read-out: HCS endpoint MEC): 0.693 µM
DILI prediction HepaRG spheroids (HCS-MEC) [12, 15]: +VE (MEC < 25 × Cmax.tot cut-off)
PHH/100uM, Proctor (2017) ([13]; 2D PHH, ATP, IC50 threshold 100 µM, ref Proctor et al. 2017): +VE (IC50 threshold of 100 µM)
PHH ATP <100uM [13, 16]: +VE (IC50 threshold of 100 µM)
